Key:
writhing movements = experiment: analgesic activity, phenyl-p-benzoquinone writhing movements (technique derived from Siegmund); type: in vivo; details: Mus musculus; mice, oral, 1 hour before i.p. phenyl-p-benzoquinone; counted 5th to 10th minute; read-out: ED50, the dose producing a 50% activity (% decrease in the number of writhing movements)
Experimental: The activity against pain was investigated in mice (23-25 g) according to a protocol derived from the technique described by SIEGMUND (SIEGMUND E.A., R. A. CADMUS & GOLU, J. Pharm. Exp. Ther. 119, 184, 1957). The mice, randomized in batches of 12 animals, received the treatment orally (excipient for the controls) 1 hour before the intraperitoneal injection of a 0.02% aqueous-alcoholic solution of phenyl-p-benzoquinone (Sigma). The writhing movements are counted between the 5th and 10th minute after injection.
The percentage activity obtained was evaluated for each dose (% decrease in the number of writhing movements in the treated animals relative to the controls). An ED50, the dose producing a 50% activity, was determined for each product.

edema = experiment: anti-inflammatory activity, acute inflammation induced by carrageenan in the rat hind foot (method of Winter); type: in vivo; details: rats, 1 hour before carrageenan, edema determined 3 hours after injection, read-out: ED30, the dose producing a 30% activity (percentage decrease in the mean edema)
Experimental: The anti-inflammatory potential of the compounds was investigated on a model of acute inflammation induced by the subcutaneous injection of a solution of carrageenan into the rat hind foot, according to a technique based on the method of WINTER, C.A., E. A. RISLEY and G. N. NUSS (Proc. Soc. Exp. Med. 111, 554, 1962). The rats (100-120 g), randomized in batches of 8, were treated (including the controls, which receive excipient) 1 hour before the local injection of a 0.5% suspension of carrageenan (Sigma type IV; 0.1 ml per rat). The edema is determined 3 hours after injection, by plethysmometric measurement (UGO BASILE water plethysomometer) of the volume of each of the hind feet (edema=volume of the inflamed foot-volume of the non-inflamed foot).
The percentage activity corresponds to the percentage decrease in the mean edema of the batch compared with the mean of the corresponding control batch. An ED30, the dose producing a 30% activity, was determined.

| Structure (SMILES) | ED50 (writhing movements) | ED30 (edema) |
| --- | --- | --- |
| CCCC(=O)c1ccnc2nc(-c3ccccc3)oc12 [Example 2, 2-PHENYL-7-BUTYRYLOXAZOLO[4,5-b]PYRIDINE] | ~5 mg/kg | – |
| Fc1ccccc1-c1nc2ncccc2o1 [Example 6 of U.S. Pat. No. 4,038,396, 2-(2-fluorophenyl)oxazolo[4,5-b]pyridine] | ~12 mg/kg | 50 mg/kg |
| CCCC(=O)c1ccnc2nc(-c3ccccc3F)oc12 [Example 6, 2-(2-FLUOROPHENYL)-7-BUTYRYLOXAZOLO[4,5-b]PYRIDINE] | ~8 mg/kg | – |

From US5061713A, “Analgesic oxazolopyridine compounds” (Science et Organization, priority 1989, dated 1991)
